Source: ChEMBL document CHEMBL3044972, “Synthesis, anti-inflammatory, and cytotoxicity evaluation of 9,10-dihydroanthracene-9,10-,-succinimide and bis-succinimide derivatives” (2013)

What follows are compounds tested on HepG2 (assay: Cytotoxicity against Homo sapiens (human) HepG2 cells assessed as growth inhibition at 10 uM after 48 hr by SRB assay). Details: HepG2, 48 h, read-out: GI.
Type: functional
O=c1[nH]cc(F)c(=O)[nH]1 [FLUOROURACIL] showed an inhibition of growth at 10 µM of 28%. O=C1C2C3c4ccccc4C(c4ccccc43)C2C(=O)N1CCN1C(=O)C2C3c4ccccc4C(c4ccccc43)C2C1=O (configuration not stated) showed an inhibition of growth at 10 µM of 29%. O=C1C2C3c4ccccc4C(c4ccccc43)C2C(=O)N1C1CC1 (configuration not stated) was tested, and the inhibition of growth at 10 µM was 53%. Work on O=C1C2C3c4ccccc4C(c4ccccc43)C2C(=O)N1CCN1CCCC1 (configuration not stated) yielded an inhibition of growth at 10 µM of 47%. In the case of O=C1C2C3c4ccccc4C(c4ccccc43)C2C(=O)N1CCCN1CCN(CCCN2C(=O)C3C4c5ccccc5C(c5ccccc54)C3C2=O)CC1 (configuration not stated), the inhibition of growth at 10 µM is reported as 33%. Work on O=C1C2C3c4ccccc4C(c4ccccc43)C2C(=O)N1CC1CCNCC1 (configuration not stated) yielded an inhibition of growth at 10 µM of 32%. Compound O=C1C2C3c4ccccc4C(c4ccccc43)C2C(=O)N1Cc1ccco1 (configuration not stated) has an inhibition of growth at 10 µM of 38%. O=C1C2C3c4ccccc4C(c4ccccc43)C2C(=O)N1Cc1ccncc1 (configuration not stated) was tested, and the inhibition of growth at 10 µM was 61%. In the case of O=C1C2C3c4ccccc4C(c4ccccc43)C2C(=O)N1CCCN1C(=O)C2C3c4ccccc4C(c4ccccc43)C2C1=O (configuration not stated), the inhibition of growth at 10 µM is reported as 45%. Compound O=C1C2C3c4ccccc4C(c4ccccc43)C2C(=O)N1CCCn1ccnc1 (configuration not stated) has an inhibition of growth at 10 µM of 48%. In the case of O=C1C2C3c4ccccc4C(c4ccccc43)C2C(=O)N1Cc1ccccc1 (configuration not stated), the inhibition of growth at 10 µM is reported as 52%.

What follows are compounds tested on NCI-H522 (assay: Cytotoxicity against Homo sapiens (human) NCI-H522 cells assessed as growth inhibition at 10 uM after 48 hr by SRB assay). Details: NCI-H522, 48 h, read-out: GI.
Type: functional
O=c1[nH]cc(F)c(=O)[nH]1 [FLUOROURACIL] showed an inhibition of growth at 10 µM of 18%. For O=C1C2C3c4ccccc4C(c4ccccc43)C2C(=O)N1CCN1C(=O)C2C3c4ccccc4C(c4ccccc43)C2C1=O (configuration not stated), the inhibition of growth at 10 µM was 11%. Work on O=C1C2C3c4ccccc4C(c4ccccc43)C2C(=O)N1C1CC1 (configuration not stated) yielded an inhibition of growth at 10 µM of 24%. For O=C1C2C3c4ccccc4C(c4ccccc43)C2C(=O)N1CCN1CCCC1 (configuration not stated), the inhibition of growth at 10 µM was 13%. Work on O=C1C2C3c4ccccc4C(c4ccccc43)C2C(=O)N1CCCN1CCN(CCCN2C(=O)C3C4c5ccccc5C(c5ccccc54)C3C2=O)CC1 (configuration not stated) yielded an inhibition of growth at 10 µM of 17%. O=C1C2C3c4ccccc4C(c4ccccc43)C2C(=O)N1CC1CCNCC1 (configuration not stated) gave an inhibition of growth at 10 µM of 25%. Compound O=C1C2C3c4ccccc4C(c4ccccc43)C2C(=O)N1Cc1ccco1 (configuration not stated) has an inhibition of growth at 10 µM of 25%. With O=C1C2C3c4ccccc4C(c4ccccc43)C2C(=O)N1Cc1ccncc1 (configuration not stated) the inhibition of growth at 10 µM was 27%. With O=C1C2C3c4ccccc4C(c4ccccc43)C2C(=O)N1CCCN1C(=O)C2C3c4ccccc4C(c4ccccc43)C2C1=O (configuration not stated) the inhibition of growth at 10 µM was 17%. Compound O=C1C2C3c4ccccc4C(c4ccccc43)C2C(=O)N1CCCn1ccnc1 (configuration not stated) has an inhibition of growth at 10 µM of 32%. O=C1C2C3c4ccccc4C(c4ccccc43)C2C(=O)N1Cc1ccccc1 (configuration not stated) was tested, and the inhibition of growth at 10 µM was 62%.

What follows are compounds tested on HCT-15 (assay: Cytotoxicity against Homo sapiens (human) HCT15 cells assessed as growth inhibition at 10 uM after 48 hr by SRB assay). Details: HCT-15, 48 h, read-out: GI.
Type: functional
Work on O=c1[nH]cc(F)c(=O)[nH]1 [FLUOROURACIL] yielded an inhibition of growth at 10 µM of 15%. O=C1C2C3c4ccccc4C(c4ccccc43)C2C(=O)N1CCN1C(=O)C2C3c4ccccc4C(c4ccccc43)C2C1=O (configuration not stated) gave an inhibition of growth at 10 µM of 10%. O=C1C2C3c4ccccc4C(c4ccccc43)C2C(=O)N1C1CC1 (configuration not stated) showed an inhibition of growth at 10 µM of 19%. O=C1C2C3c4ccccc4C(c4ccccc43)C2C(=O)N1CCN1CCCC1 (configuration not stated) showed an inhibition of growth at 10 µM of 14%. Work on O=C1C2C3c4ccccc4C(c4ccccc43)C2C(=O)N1CCCN1CCN(CCCN2C(=O)C3C4c5ccccc5C(c5ccccc54)C3C2=O)CC1 (configuration not stated) yielded an inhibition of growth at 10 µM of 10%. For O=C1C2C3c4ccccc4C(c4ccccc43)C2C(=O)N1CC1CCNCC1 (configuration not stated), the inhibition of growth at 10 µM was 11%. Work on O=C1C2C3c4ccccc4C(c4ccccc43)C2C(=O)N1Cc1ccco1 (configuration not stated) yielded an inhibition of growth at 10 µM of 15%. For O=C1C2C3c4ccccc4C(c4ccccc43)C2C(=O)N1Cc1ccncc1 (configuration not stated), the inhibition of growth at 10 µM was 12%. O=C1C2C3c4ccccc4C(c4ccccc43)C2C(=O)N1CCCN1C(=O)C2C3c4ccccc4C(c4ccccc43)C2C1=O (configuration not stated) showed an inhibition of growth at 10 µM of 27%. Work on O=C1C2C3c4ccccc4C(c4ccccc43)C2C(=O)N1CCCn1ccnc1 (configuration not stated) yielded an inhibition of growth at 10 µM of 30%. O=C1C2C3c4ccccc4C(c4ccccc43)C2C(=O)N1Cc1ccccc1 (configuration not stated) gave an inhibition of growth at 10 µM of 12%.

These compounds were tested on Rattus norvegicus (assay: Anti-inflammatory activity against albino Charles Foster Rattus norvegicus (rat) assessed as inhibition of carrageenan-induced paw edema at 50 mg/kg, po administered 30 min prior to carrageenan injection measured after 1-3 hr by plethysmometer). Details: not given.
Type: functional
Parameters: scale not given: the % may be the effect or the level left
CC(C)Cc1ccc(C(C)C(=O)O)cc1 (configuration not stated) [IBUPROFEN] was tested, and the Activity was 39%. O=C1C2C3c4ccccc4C(c4ccccc43)C2C(=O)N1CCN1CCNCC1 (configuration not stated) showed an Activity of 31%. In the case of O=C1C2C3c4ccccc4C(c4ccccc43)C2C(=O)N1CCN1C(=O)C2C3c4ccccc4C(c4ccccc43)C2C1=O (configuration not stated), the Activity is reported as 20%. Compound O=C1C2C3c4ccccc4C(c4ccccc43)C2C(=O)N1C1CC1 (configuration not stated) has an Activity of 23%. In the case of O=C1C2C3c4ccccc4C(c4ccccc43)C2C(=O)N1CCN1CCCC1 (configuration not stated), the Activity is reported as 28%. Work on O=C1C2C3c4ccccc4C(c4ccccc43)C2C(=O)N1CCCN1CCN(CCCN2C(=O)C3C4c5ccccc5C(c5ccccc54)C3C2=O)CC1 (configuration not stated) yielded an Activity of 15%. O=C1C2C3c4ccccc4C(c4ccccc43)C2C(=O)N1CC1CCNCC1 (configuration not stated) showed an Activity of 35%. For O=C1C2C3c4ccccc4C(c4ccccc43)C2C(=O)N1Cc1ccco1 (configuration not stated), the Activity was 15%. Work on O=C1C2C3c4ccccc4C(c4ccccc43)C2C(=O)N1Cc1ccncc1 (configuration not stated) yielded an Activity of 37%. Work on O=C1C2C3c4ccccc4C(c4ccccc43)C2C(=O)N1CCCN1C(=O)C2C3c4ccccc4C(c4ccccc43)C2C1=O (configuration not stated) yielded an Activity of 33%. For O=C1C2C3c4ccccc4C(c4ccccc43)C2C(=O)N1CCCn1ccnc1 (configuration not stated), the Activity was 27%. Compound O=C1C2C3c4ccccc4C(c4ccccc43)C2C(=O)N1Cc1ccccc1 (configuration not stated) has an Activity of 37%.

Each compound was assayed on PA-1 (assay: Cytotoxicity against Homo sapiens (human) PA1 cells assessed as growth inhibition at 10 uM after 48 hr by SRB assay). Details: PA-1, 48 h, read-out: GI.
Type: functional
Work on O=c1[nH]cc(F)c(=O)[nH]1 [FLUOROURACIL] yielded an inhibition of growth at 10 µM of 18%. Work on O=C1C2C3c4ccccc4C(c4ccccc43)C2C(=O)N1CCN1C(=O)C2C3c4ccccc4C(c4ccccc43)C2C1=O (configuration not stated) yielded an inhibition of growth at 10 µM of 9%. In the case of O=C1C2C3c4ccccc4C(c4ccccc43)C2C(=O)N1C1CC1 (configuration not stated), the inhibition of growth at 10 µM is reported as 37%. For O=C1C2C3c4ccccc4C(c4ccccc43)C2C(=O)N1CCN1CCCC1 (configuration not stated), the inhibition of growth at 10 µM was 36%. O=C1C2C3c4ccccc4C(c4ccccc43)C2C(=O)N1CCCN1CCN(CCCN2C(=O)C3C4c5ccccc5C(c5ccccc54)C3C2=O)CC1 (configuration not stated) gave an inhibition of growth at 10 µM of 16%. For O=C1C2C3c4ccccc4C(c4ccccc43)C2C(=O)N1CC1CCNCC1 (configuration not stated), the inhibition of growth at 10 µM was 26%. With O=C1C2C3c4ccccc4C(c4ccccc43)C2C(=O)N1Cc1ccco1 (configuration not stated) the inhibition of growth at 10 µM was 27%. In the case of O=C1C2C3c4ccccc4C(c4ccccc43)C2C(=O)N1Cc1ccncc1 (configuration not stated), the inhibition of growth at 10 µM is reported as 21%. O=C1C2C3c4ccccc4C(c4ccccc43)C2C(=O)N1CCCN1C(=O)C2C3c4ccccc4C(c4ccccc43)C2C1=O (configuration not stated) showed an inhibition of growth at 10 µM of 6%. For O=C1C2C3c4ccccc4C(c4ccccc43)C2C(=O)N1CCCn1ccnc1 (configuration not stated), the inhibition of growth at 10 µM was 40%. With O=C1C2C3c4ccccc4C(c4ccccc43)C2C(=O)N1Cc1ccccc1 (configuration not stated) the inhibition of growth at 10 µM was 43%.

These compounds were tested on T47D (assay: Cytotoxicity against Homo sapiens (human) T47D cells assessed as growth inhibition at 10 uM after 48 hr by SRB assay). Details: read-out: GI.
Type: functional
In the case of O=c1[nH]cc(F)c(=O)[nH]1 [FLUOROURACIL], the inhibition of growth at 10 µM is reported as 10%. O=C1C2C3c4ccccc4C(c4ccccc43)C2C(=O)N1CCN1C(=O)C2C3c4ccccc4C(c4ccccc43)C2C1=O (configuration not stated) was tested, and the inhibition of growth at 10 µM was 5%. O=C1C2C3c4ccccc4C(c4ccccc43)C2C(=O)N1C1CC1 (configuration not stated) gave an inhibition of growth at 10 µM of 21%. With O=C1C2C3c4ccccc4C(c4ccccc43)C2C(=O)N1CCN1CCCC1 (configuration not stated) the inhibition of growth at 10 µM was 7%. Work on O=C1C2C3c4ccccc4C(c4ccccc43)C2C(=O)N1CCCN1CCN(CCCN2C(=O)C3C4c5ccccc5C(c5ccccc54)C3C2=O)CC1 (configuration not stated) yielded an inhibition of growth at 10 µM of 33%. O=C1C2C3c4ccccc4C(c4ccccc43)C2C(=O)N1CC1CCNCC1 (configuration not stated) was tested, and the inhibition of growth at 10 µM was 17%. In the case of O=C1C2C3c4ccccc4C(c4ccccc43)C2C(=O)N1Cc1ccco1 (configuration not stated), the inhibition of growth at 10 µM is reported as 40%. Work on O=C1C2C3c4ccccc4C(c4ccccc43)C2C(=O)N1Cc1ccncc1 (configuration not stated) yielded an inhibition of growth at 10 µM of 24%. O=C1C2C3c4ccccc4C(c4ccccc43)C2C(=O)N1CCCN1C(=O)C2C3c4ccccc4C(c4ccccc43)C2C1=O (configuration not stated) was tested, and the inhibition of growth at 10 µM was 24%. O=C1C2C3c4ccccc4C(c4ccccc43)C2C(=O)N1CCCn1ccnc1 (configuration not stated) showed an inhibition of growth at 10 µM of 28%. For O=C1C2C3c4ccccc4C(c4ccccc43)C2C(=O)N1Cc1ccccc1 (configuration not stated), the inhibition of growth at 10 µM was 22%.
